Source: US20210205638A1, “PARATHYROID HORMONE AND REGENERATION OF DEGENERATIVE DISCS DISEASE” (THE JOHNS HOPKINS UNIVERSITY, priority 2017, published 2021)

Experiments:
NP cells = assay: cAMP assay in NP cells (enzyme immunoassay); assay type: cell-based, mouse; conditions: PTH (1-34) 100 nmol
Description: Green fluorescent protein (GFP) labeled NP cells of notochordal origin were isolated from 15-day old Noto^Cre/+::ROSA26-lacZ^flox/flox male mice as previously described. The NP cells from 15-day old PTH1R^+/+ and PTH1R^−/−, IFT88^+/+ and IFT88^−/− male mice. Briefly, the cells were isolated from the NP region of IVDs in the spinal column from mid thoracic to lower lumbar region and digested initially with TrypLE Express (Gibco) for 30 minutes on shaker, followed by 0.25 mg/ml Collagense-P (Roche) for another […] at 37° C. The digested cells were washed twice with PBS, and cultured in α-MEM (Gibco) supplemented with 10% fetal calf serum (Atlanta Biologicals), and 1% penicillin—streptomycin (Mediatech) to 80-90% confluence at 37° C., 5% CO2 and 5% O2.
For cAMP assays, confluent cells were grown in 35-mm six-well plates starved overnight by incubation in serum-free α-MEM at 37° C. The cells were then treated with 100 nM human of human PTH (1-34; Bachem Calif., Inc.) for 1 h. Cellular cAMP was extracted and the concentration measured with the Biotrak enzyme immunoassay system (GE Healthare, Inc., Princeton, HJ). We determined the concentration of total and active TGF-β in the NP tissue using the ELISA Development Kit (R&D Systems) according to the manufacturer's instructions.

PTH1R KO mice = assay: iPTH in PTH1R KO and PTH1R+/+ mice: PPCT IVD volume; assay type: in vivo, mouse
Description: Mice carrying the PTH1R gene flanked by loxP sites (PTH1R^flox/flox) were mated with Noto^Cre mice to generate mice bearing Noto^Cre and a floxed PTH1R allele in their germline. These mice were backcrossed to homozygous floxed mice (Noto^Cre/+/PTH1R^flox/+::PTH1R^flox/flox) to generate mice with inactivation of both alleles in notochord derived cells (genotype Noto^+/+::PTH1R^flox/flox). […] The genotype of transgenic mice was determined by PCR analyses of genomic DNA isolated from mouse tails. […] The images were reconstructed and analyzed using the GPU-CT-Reconstruction software (applied by the BL13W1 experimental station) and the VG Studio Max 3D software (version 2.1, Volume Graphics GmbH, Germany) respectively. […] The 3D quantitative analysis of IVDs was performed with the commercially available Image Pro Analyzer 3D software (Version 7.0, Media Cybernetics, Inc., USA). The 3D structural parameters analyzed for the mean height and volume and thickness distribution of IVDs. The trabecular bone of L4 was segmented from the bone marrow and analyzed to determine the trabecular bone volume fraction (BV/TV), trabecular thickness (Tb. Th), trabecular number (Tb. N) and trabecular separation (Tb. Sp).

18-month-old mice = assay: iPTH in aged mice: PPCT of IVD and L4 trabecular bone; assay type: in vivo, mouse; conditions: for IVD morphology: aged mice
Description: For the dosage screening experiments, 17 month old male C57BL/6J WT mice were assigned into four groups treated with different doses of PTH or vehicle; 20 μg/kg/d, 40 μg/kg/d and 80 μg/kg/d of human PTH (1-34) (Bachem Calif., Inc. King of Prussia, Pa., USA.) or vehicle groups. We chose the optimal dosage of PTH (1-34) for the rest of the experiment.
Propagation phase contrast micro-tomography (PPCT) based on the Synchrotron radiation scanning was performed at the BL13W1 biomedical beamline in the Shanghai Synchrotron Radiation Facility (SSRF) in China (FIG. 7A). To obtain high X-ray attenuation contrast images, the monochromatic X-ray energy was adjusted to 15 keV, the scanner was set at a voltage of 15 keV, exposure time set to 2.5 s, and the sample-to-detector distance (SDD) adjusted to 30 cm and a resolution of 3.7 μm per pixel. The images were reconstructed and analyzed using the GPU-CT-Reconstruction software (applied by the BL13W1 experimental station) and the VG Studio Max 3D software (version 2.1, Volume Graphics GmbH, Germany) respectively. The region of interest was defined to cover the whole L3-L4 compartment. The 3D quantitative analysis of IVDs was performed with the commercially available Image Pro Analyzer 3D software (Version 7.0, Media Cybernetics, Inc., USA). The 3D structural parameters analyzed for the mean height and volume and thickness distribution of IVDs. The trabecular bone of L4 was segmented from the bone marrow and analyzed to determine the trabecular bone volume fraction (BV/TV), trabecular thickness (Tb. Th), trabecular number (Tb. N) and trabecular separation (Tb. Sp).

[1] = 18-month-old mice relative to vehicle, 40 μg/kg
[2] = 18-month-old mice, L4 trabecular bone

## CC[C@H](C)[C@H](NC(=O)[C@H](CCC(=O)O)NC(=O)[C@H](CO)NC(=O)[C@@H](NC(=O)[C@@H](N)CO)C(C)C)C(=O)N[C@@H](CCC(N)=O)C(=O)N[C@@H](CC(C)C)C(=O)N[C@@H](CCSC)C(=O)N[C@@H](Cc1cnc[nH]1)C(=O)N[C@@H](CC(N)=O)C(=O)N[C@@H](CC(C)C)C(=O)NCC(=O)N[C@@H](CCCCN)C(=O)N[C@@H](Cc1cnc[nH]1)C(=O)N[C@@H](CC(C)C)C(=O)N[C@@H](CC(N)=O)C(=O)N[C@@H](CO)C(=O)N[C@@H](CCSC)C(=O)N[C@@H](CCC(=O)O)C(=O)N[C@@H](CCCN=C(N)N)C(=O)N[C@H](C(=O)N[C@@H](CCC(=O)O)C(=O)N[C@@H](Cc1c[nH]c2ccccc12)C(=O)N[C@@H](CC(C)C)C(=O)N[C@@H](CCCN=C(N)N)C(=O)N[C@@H](CCCCN)C(=O)N[C@@H](CCCCN)C(=O)N[C@@H](CC(C)C)C(=O)N[C@@H](CCC(N)=O)C(=O)N[C@@H](CC(=O)O)C(=O)N[C@H](C(=O)N[C@@H](Cc1cnc[nH]1)C(=O)N[C@@H](CC(N)=O)C(=O)N[C@@H](Cc1ccccc1)C(=O)O)C(C)C)C(C)C [PTH (1-34), teriparatide]
NP cells
  time at which cAMP level in NP cells peaked: 30 min
PTH1R KO mice; 12-month-old PTH1R KO mice
  increase of IVD volume by iPTH: abolished
PTH1R KO mice; 12-month-old PTH1R+/+ mice
  IVD volume: Increase
18-month-old mice; [1]
  IVD height: increased
  IVD volume: increased
18-month-old mice; [2]
  bone volume (BV/TV): increase
  connectivity (Tb. Con): increase
18-month-old mice; 18-month-old mice, especially the central area of IVD
  IVD thickness in 3D images in five different areas: significant increase
18-month-old mice; 40 μg/kg daily for eight weeks
  IVD morphology: significantly improved
18-month-old mice; 80 μg/kg daily for eight weeks
  IVD morphology: significantly improved
